“And” between values parts separate entries of the source, which are not always exact repeats. Equal entries are not always repeated. Toxic doses and inconclusive results are not listed. Rule as the data show it: active = T/C of 150% or more; inactive = T/C below 125%.
Tested on: L1210 leukemia ip in BDF1 mice, survival T/C
Assay: NCI In Vivo Anticancer Drug Screen. Data for tumor model L1210 Leukemia (intraperitoneal) in B6D2F1 (BDF1) mice
Conditions: endpoint: mean survival time, higher = longer survival
In short: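 Tumor cells were implanted, animals were treated, and survival was followed. The result divides the treated measurement by the vehicle-control measurement.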

[1] = dose: 100.0 mg/kg/injection, schedule: Q04DX003 (ip), vehicle: saline with Tween-80
[2] = dose: 200.0 mg/kg/injection, schedule: Q04DX003 (ip), vehicle: saline with Tween-80
[3] = dose: 400.0 mg/kg/injection, schedule: Q04DX003 (ip), vehicle: saline with Tween-80
[4] = dose: 100.0 mg/kg/injection, schedule: Q01DX009 (ip), vehicle: Klucel (hydroxypropylcellulose) (HPC)
[5] = dose: 100.0 mg/kg/injection, schedule: Q04DX003 (ip), vehicle: Klucel (hydroxypropylcellulose) (HPC)
[6] = dose: 200.0 mg/kg/injection, schedule: Q01DX009 (ip), vehicle: Klucel (hydroxypropylcellulose) (HPC)
[7] = dose: 200.0 mg/kg/injection, schedule: Q04DX003 (ip), vehicle: Klucel (hydroxypropylcellulose) (HPC)
[8] = dose: 400.0 mg/kg/injection, schedule: Q01DX009 (ip), vehicle: Klucel (hydroxypropylcellulose) (HPC)
[9] = dose: 400.0 mg/kg/injection, schedule: Q04DX003 (ip), vehicle: Klucel (hydroxypropylcellulose) (HPC)
[10] = dose: 25.0 mg/kg/injection, schedule: Q01DX009 (ip), vehicle: Klucel (hydroxypropylcellulose) (HPC)
[11] = dose: 100.0 mg/kg/injection, schedule: Q01DX001 (ip), vehicle: saline
[12] = dose: 200.0 mg/kg/injection, schedule: Q01DX001 (ip), vehicle: saline
[13] = dose: 400.0 mg/kg/injection, schedule: Q01DX001 (ip), vehicle: saline
[14] = dose: 100.0 mg/kg/injection, schedule: Q04DX002 (ip), vehicle: saline with Tween-80
[15] = dose: 200.0 mg/kg/injection, schedule: Q04DX002 (ip), vehicle: saline with Tween-80
[16] = dose: 100.0 mg/kg/injection, schedule: Q04DX003 (ip), vehicle: saline
[17] = dose: 200.0 mg/kg/injection, schedule: Q04DX003 (ip), vehicle: saline
[18] = dose: 50.0 mg/kg/injection, schedule: Q01DX001 (ip), vehicle: saline
[19] = dose: 100.0 mg/kg/injection, schedule: Q01DX001 (ip), vehicle: carboxymethylcellulose (CMC)
[20] = dose: 200.0 mg/kg/injection, schedule: Q01DX001 (ip), vehicle: carboxymethylcellulose (CMC)
[21] = dose: 100.0 mg/kg/injection, schedule: Q01DX001 (ip), vehicle: Klucel (hydroxypropylcellulose) (HPC)
[22] = dose: 200.0 mg/kg/injection, schedule: Q01DX001 (ip), vehicle: Klucel (hydroxypropylcellulose) (HPC)
[23] = dose: 400.0 mg/kg/injection, schedule: Q01DX001 (ip), vehicle: Klucel (hydroxypropylcellulose) (HPC)
[24] = dose: 100.0 mg/kg/injection, schedule: Q04DX002 (ip), vehicle: Klucel (hydroxypropylcellulose) (HPC)
[25] = dose: 200.0 mg/kg/injection, schedule: Q04DX002 (ip), vehicle: Klucel (hydroxypropylcellulose) (HPC)
[26] = dose: 400.0 mg/kg/injection, schedule: Q04DX002 (ip), vehicle: Klucel (hydroxypropylcellulose) (HPC)

Measured: T/C

CC1(C)C2CCC(C2)C1C(=O)O (configuration not stated)
inactive: [1] 95 % of control | [2] 91 % of control | [3] 100 % of control

CCOc1ccccc1NC(=O)Nc1cccc2ccccc12
inactive: [4] 104 % of control | [5] 90 % of control | [6] 96 % of control | [7] 91 % of control | [8] 102 % of control | [9] 88 % of control

Cc1ccc(C[As](C)(=O)O)cc1
inactive: dose: 25.0 mg/kg/injection, schedule: Q04DX003 (ip), vehicle: Klucel (hydroxypropylcellulose) (HPC) 100 % of control | dose: 50.0 mg/kg/injection, schedule: Q04DX003 (ip), vehicle: Klucel (hydroxypropylcellulose) (HPC) 98 % of control | [5] 97 % of control

COc1ccc(O)c(/C=N\N=C\c2cc(OC)ccc2O)c1
inactive: [4] 106 % of control | [6] 101 % of control | [8] 95 % of control

CCCCCCCCCCCC(=O)N/N=C(\C)c1cccc2ccccc12
inactive: [10] 92 % of control | dose: 50.0 mg/kg/injection, schedule: Q01DX009 (ip), vehicle: Klucel (hydroxypropylcellulose) (HPC) 96 % of control | [4] 88 % of control and 92 % of control

CCCCCC/C(C)=N/Nc1ccc([N+](=O)[O-])cc1[N+](=O)[O-]
inactive: [11] 93 % of control | [12] 102 % of control | [13] 100 % of control

CC(C)C(C#Cc1ccccc1)N1CCCCC1 (configuration not stated)
inactive: [14] 103 % of control | [15] 87 % of control | dose: 400.0 mg/kg/injection, schedule: Q04DX002 (ip), vehicle: saline with Tween-80 97 % of control

C[N+]1(C)CCC(OC(=O)C(O)(c2ccccc2)C2CCCC2)C1 (configuration not stated)
inactive: [1] 100 % of control

CCCCCC1(O)C2CCCC1CCC2 (configuration not stated)
inactive: [1] 94 % of control | [2] 97 % of control | [3] 105 % of control

Nc1ccc(C(=O)CC(O)(C(F)(F)F)C(F)(F)F)cc1
inactive: dose: 25.0 mg/kg/injection, schedule: Q01DX009 (ip), vehicle: saline with Tween-80 92 % of control | dose: 50.0 mg/kg/injection, schedule: Q01DX009 (ip), vehicle: saline with Tween-80 94 % of control | dose: 100.0 mg/kg/injection, schedule: Q01DX009 (ip), vehicle: saline with Tween-80 100 % of control and 92 % of control | dose: 200.0 mg/kg/injection, schedule: Q01DX009 (ip), vehicle: saline with Tween-80 95 % of control

O=C(Nc1c(Oc2ccc(Cl)cc2Cl)ccc(Cl)c1S(=O)(=O)O)Nc1c(Oc2ccc(Cl)cc2Cl)ccc(Cl)c1S(=O)(=O)O
inactive: dose: 50.0 mg/kg/injection, schedule: Q04DX003 (ip), vehicle: saline 101 % of control | [16] 97 % of control | [17] 95 % of control

O=C(Nc1ccc(Br)c2c(NC(=O)c3ccccc3)ccc(Br)c12)c1ccccc1
inactive: [18] 110 % of control | [11] 101 % of control | [12] 95 % of control | [13] 98 % of control

CC(=O)Nc1cc2c3ccccc3ccc2c2ccccc12
inactive: [19] 87 % of control

C=CCCCCCCCCO
inactive: [18] 98 % of control | [11] 95 % of control | [12] 95 % of control

FC(F)(F)c1nccc(=S)[nH]1
inactive: dose: 50.0 mg/kg/injection, schedule: Q01DX Z (ip), vehicle: methylcellulose (MC) 98 % of control | dose: 100.0 mg/kg/injection, schedule: Q01DX Z (ip), vehicle: methylcellulose (MC) 90 % of control

O=P(O)(Oc1cccc(Cl)c1)Oc1cccc(Cl)c1
inactive: [14] 115 % of control | [15] 104 % of control

CS(=O)(=O)OCC1C2CCC(CC2)C1COS(C)(=O)=O (configuration not stated)
inactive: [5] 100 % of control | [7] 103 % of control | [9] 102 % of control

CC(=O)[O][Hg][c]1cc[c]([Hg][O]C(C)=O)s1
inactive: dose: 3.0 mg/kg/injection, schedule: Q01DX009 (ip), vehicle: Klucel (hydroxypropylcellulose) (HPC) 91 % of control | dose: 6.0 mg/kg/injection, schedule: Q01DX009 (ip), vehicle: Klucel (hydroxypropylcellulose) (HPC) 89 % of control | dose: 12.5 mg/kg/injection, schedule: Q04DX003 (ip), vehicle: Klucel (hydroxypropylcellulose) (HPC) 100 % of control

CC(=O)N1C(=O)C2(Nc3ccccc3N2)c2ccccc21
inactive: [19] 87 % of control | [20] 87 % of control | dose: 400.0 mg/kg/injection, schedule: Q01DX001 (ip), vehicle: carboxymethylcellulose (CMC) 96 % of control

Cc1ccc(/C=C/c2ccccn2)cc1
inactive: dose: 50.0 mg/kg/injection, schedule: Q01DX001 (ip), vehicle: carboxymethylcellulose (CMC) 100 % of control | dose: 50.0 mg/kg/injection, schedule: Q04DX003 (ip), vehicle: carboxymethylcellulose (CMC) 105 % of control | [19] 100 % of control | dose: 100.0 mg/kg/injection, schedule: Q01DX009 (ip), vehicle: carboxymethylcellulose (CMC) 100 % of control and 90 % of control | dose: 100.0 mg/kg/injection, schedule: Q04DX002 (ip), vehicle: carboxymethylcellulose (CMC) 98 % of control and 107 % of control | dose: 100.0 mg/kg/injection, schedule: Q04DX003 (ip), vehicle: carboxymethylcellulose (CMC) 110 % of control | [20] 100 % of control | dose: 200.0 mg/kg/injection, schedule: Q01DX009 (ip), vehicle: carboxymethylcellulose (CMC) 93 % of control and 108 % of control | dose: 200.0 mg/kg/injection, schedule: Q04DX002 (ip), vehicle: carboxymethylcellulose (CMC) 97 % of control and 113 % of control | dose: 200.0 mg/kg/injection, schedule: Q04DX003 (ip), vehicle: carboxymethylcellulose (CMC) 96 % of control | dose: 400.0 mg/kg/injection, schedule: Q04DX002 (ip), vehicle: carboxymethylcellulose (CMC) 98 % of control and 90 % of control

O=NC1C(Cl)C2CC1C1COCC21 (configuration not stated)
inactive: [21] 97 % of control | [22] 90 % of control | [23] 89 % of control

CC(=O)Nc1cccc(OCCCOc2cccc(C#N)c2)c1
inactive: [5] 96 % of control | [7] 101 % of control | [9] 98 % of control

Cc1cc(C)c(NC(=O)Nc2cccc(F)c2)c(C)c1
inactive: [4] 96 % of control | [24] 98 % of control | [6] 105 % of control | [25] 102 % of control | [26] 102 % of control

CC[P+](CC)(CC)c1ccccc1
inactive: dose: 6.0 mg/kg/injection, schedule: Q04DX003 (ip), vehicle: saline 103 % of control | dose: 6.25 mg/kg/injection, schedule: Q01DX009 (ip), vehicle: saline 100 % of control | dose: 12.0 mg/kg/injection, schedule: Q04DX003 (ip), vehicle: saline 107 % of control | dose: 12.5 mg/kg/injection, schedule: Q01DX009 (ip), vehicle: saline 100 % of control | [10] 100 % of control | dose: 25.0 mg/kg/injection, schedule: Q01DX009 (ip), vehicle: saline 110 % of control | dose: 25.0 mg/kg/injection, schedule: Q04DX003 (ip), vehicle: saline 96 % of control and 92 % of control

C/C(=N/OC(=O)N(C)C)c1ccc([N+](=O)[O-])cc1
inactive: [11] 104 % of control | [12] 104 % of control | [13] 104 % of control

c1ccc2c(c1)CC(=[N+]1CCCCC1)Cc1ccccc1-2
inactive: dose: 100.0 mg/kg/injection, schedule: Q01DX009 (ip), vehicle: saline 92 % of control | [16] 103 % of control | dose: 200.0 mg/kg/injection, schedule: Q01DX009 (ip), vehicle: saline 92 % of control | [17] 89 % of control | dose: 400.0 mg/kg/injection, schedule: Q04DX003 (ip), vehicle: saline 87 % of control

CC1(C)[C@@H]2CC[C@]1(C)[C@@H](O)C2
inactive: [21] 104 % of control | [5] 102 % of control | [22] 96 % of control | [7] 102 % of control | [23] 93 % of control | [9] 97 % of control

CC(=O)OCCn1c([N+](=O)[O-])cnc1/C=[N+](\[O-])C1CCCCC1
inactive: [24] 107 % of control | [25] 100 % of control | [26] 103 % of control

Source: PubChem BioAssay AID248 (DTP/NCI, 2004)
